Laboratory results published in patent US12295396B2, “Antagonists of T2R54 and compositions and uses thereof” (Firmenich Incorporated, priority 2018, dated 2025).
Where two headings read alike, the source gives them in different places.

Legend:
hT2R54 = molecular target: T1, hT2R54 (Homo sapiens, UniProt P59534); test: Cell-based assay for measuring hT2R54 inhibition (FLIPR calcium, Fluo4AM, acetaminophen as bitter agonist); conditions: read-out: hT2R54 IC50
T1 construct: expressed in transfected cells; it overexpresses a promiscuous G protein
T1 sequence (P59534 1-338): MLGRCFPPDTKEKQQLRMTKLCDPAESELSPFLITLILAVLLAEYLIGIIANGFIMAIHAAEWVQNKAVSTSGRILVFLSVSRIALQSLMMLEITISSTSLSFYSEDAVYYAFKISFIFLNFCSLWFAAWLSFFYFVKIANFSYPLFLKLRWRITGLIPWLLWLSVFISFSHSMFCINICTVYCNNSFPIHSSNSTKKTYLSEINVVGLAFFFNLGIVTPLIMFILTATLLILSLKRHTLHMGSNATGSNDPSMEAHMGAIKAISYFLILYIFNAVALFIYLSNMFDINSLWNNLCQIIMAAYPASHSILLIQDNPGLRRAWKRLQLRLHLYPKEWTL
Method in brief: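 Cells stably co-expressing hT2R54 and a promiscuous G protein were loaded with Fluo4AM and given acetaminophen dose series, alone or with fixed concentrations of test compound. On FLIPR, baseline was recorded for 10 s and fluorescence for 3 min after addition. IC50 is the concentration halving the acetaminophen-alone response.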

T2R61 = molecular target: T2, T2R61 (Homo sapiens, UniProt P59537); test: Antagonist activity against a panel of bitter taste receptors (receptor based assay): T2R61; type: cell-based
T2 sequence (P59537 1-309): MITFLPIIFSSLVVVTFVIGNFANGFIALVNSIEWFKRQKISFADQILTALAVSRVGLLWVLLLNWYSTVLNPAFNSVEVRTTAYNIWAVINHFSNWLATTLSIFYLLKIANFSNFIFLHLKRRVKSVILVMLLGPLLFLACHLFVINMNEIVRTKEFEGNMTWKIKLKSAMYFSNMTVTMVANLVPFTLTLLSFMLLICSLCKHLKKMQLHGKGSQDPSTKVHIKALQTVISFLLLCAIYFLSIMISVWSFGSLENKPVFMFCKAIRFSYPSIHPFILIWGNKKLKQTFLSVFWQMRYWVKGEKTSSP
Excerpt: (§1) Compounds described in this application show potent bitter antagonist effect on T2R54 in receptor based assays. […] Antagonist activity of 1-(6-methyl-2-phenylpyrimidin-4-yl)piperidine-4-carboxamide against a panel of bitter taste receptors is shown in Table 10, with the identity of each T2R as indicated in the left column, and the percentage activity remaining is indicated in the far right column.

T2R64 = molecular target: T3, T2R64 (Homo sapiens, UniProt P59538); test: Antagonist activity against a panel of bitter taste receptors (receptor based assay): T2R64; type: cell-based
T3 sequence (P59538 1-309): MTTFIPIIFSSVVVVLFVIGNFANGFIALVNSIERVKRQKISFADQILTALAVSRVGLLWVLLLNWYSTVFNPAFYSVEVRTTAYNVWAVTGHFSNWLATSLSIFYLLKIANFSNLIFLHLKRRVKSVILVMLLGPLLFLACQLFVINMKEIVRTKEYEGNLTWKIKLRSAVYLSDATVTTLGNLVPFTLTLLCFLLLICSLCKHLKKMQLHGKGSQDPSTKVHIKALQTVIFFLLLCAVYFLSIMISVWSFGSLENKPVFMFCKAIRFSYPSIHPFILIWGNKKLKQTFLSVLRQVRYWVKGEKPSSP
Excerpt: as §1

T2R75 = molecular target: T4, T2R75 (Homo sapiens, UniProt P59540); test: Antagonist activity against a panel of bitter taste receptors (receptor based assay): T2R75; type: cell-based
T4 sequence (P59540 1-309): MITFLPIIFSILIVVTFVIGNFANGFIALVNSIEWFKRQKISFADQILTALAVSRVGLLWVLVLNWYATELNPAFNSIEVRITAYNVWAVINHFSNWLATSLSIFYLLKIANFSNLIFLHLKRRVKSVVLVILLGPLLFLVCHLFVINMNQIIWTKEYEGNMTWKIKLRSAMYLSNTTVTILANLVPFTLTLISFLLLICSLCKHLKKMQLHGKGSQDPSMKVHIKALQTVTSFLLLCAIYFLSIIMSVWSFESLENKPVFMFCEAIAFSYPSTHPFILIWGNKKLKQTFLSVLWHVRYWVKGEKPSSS
Excerpt: as §1

[1] = system: bitterness of epigallocatechin gallate (EGCg); test: Sensory experiments: taste tests comparing EGCg alone with EGCg and a bitter blocker; type: in vivo, human
Protocol: To determine the effectiveness of an individual antagonist in blocking the bitterness, taste tests were performed comparing epigallocatechin gallate (EGCg) alone, which is known to activate T2R54 with EGCg and a bitter blocker described herein, namely compound 22 (Table 2).

[2] = Table 2, cells stably expressing hT2R54 and a promiscuous G protein
[3] = Table 4, cells stably expressing hT2R54 and a promiscuous G protein

Row | Compound | IC50 (hT2R54; [2]) [µM] | IC50 (hT2R54; Table 8) [µM] | further results
1 | CC(=O)c1cc2c(cc1NC(=O)CN1CCN(C(=O)CC(C)C)CC1)OCO2 [Cmpd 1, N-(6-Acetylbenzo[d][1,3]dioxol-5-yl)-2-(4-(3-methylbutanoyl)piperazin-1-yl)acetamide] | 0.016 |  | bitter blocking effect on T2R61 (T2R61): significant bitter blocking effect; bitter blocking effect on T2R64 (T2R64): significant bitter blocking effect; bitter blocking effect on T2R75 (T2R75): significant bitter blocking effect
2 | CC(=O)c1cc2c(cc1NC(=O)CN1CCN(C(=O)C3CCCO3)CC1)OCO2 (stereo not shown) [compound 22] | 0.021 |  | Total (times sample selected as more bitter) ([1]; 600 uM EGCG + 15 uM compound versus 600 uM EGCG alone, 56 in total, p-value 0.044): 20; reduction of EGCg bitterness ([1]; taste tests, EGCg alone versus EGCg with bitter blocker): has the ability to reduce EGCg bitterness
3 | CCC(C)C(=O)N1CCCC(CC(=O)Nc2cc3c(cc2C(C)=O)OCO3)C1 (stereo not shown) [compound 208] |  | 0.17 | 
4 | CCOC(=O)[C@H]1CCCCN1CC(=O)Nc1cc2c(cc1C(C)=O)OCO2 [compound 419] |  |  | IC50 (hT2R54; [3]): 0.135 µM
5 | CC(=O)c1cc2c(cc1NC(=O)CC1CCN(C(=O)c3cccnc3)CC1)OCO2 [compound 244] |  | 0.051 | 
6 | CC(=O)c1cc2c(cc1NC(=O)CC1CCOCC1)OCO2 [compound 270, N-(6-Acetylbenzo[d][1,3]dioxol-5-yl)-2-(tetrahydro-2H-pyran-4-yl)acetamide] |  |  | IC50 (hT2R54; Table 9): 0.561 µM
7 | CC(=O)c1cc2c(cc1NC(=O)CN1CCC(NC(=O)c3cccnc3)CC1)OCO2 [compound 175] |  |  | IC50 (hT2R54; Table 6, cells stably expressing hT2R54 and a promiscuous G protein): 0.11 µM
8 | CC(=O)c1cc2c(cc1NC(=O)CC1CCN(C(=O)Cc3cccnc3)CC1)OCO2 [compound 250] |  | 0.76 | 
9 | CC(=O)c1cc2c(cc1NC(=O)Cc1ccc(O)cc1)OCO2 [compound 274] |  |  | IC50 (hT2R54; Table 9): 0.554 µM
10 | CC(=O)c1cc2c(cc1NC(=O)CC1CN(C(=O)CC(C)C)CCO1)OCO2 (stereo not shown) [compound 229] |  | 0.22 | 
11 | CC(=O)c1cc2c(cc1NC(=O)CC1CCN(C(=O)Cc3ccncc3)CC1)OCO2 [compound 251] |  | 0.58 | 
12 | COC1CCN(C(C)(C)C(=O)Nc2cc3c(cc2C(C)=O)OCO3)CC1 [compound 124] |  |  | IC50 (hT2R54; [3]): 2.14 µM
13 | COCCN(C)CC(=O)Nc1cc2c(cc1C(C)=O)OCO2 [compound 426] |  |  | IC50 (hT2R54; [3]): 1.15 µM
14 | COc1cc2c(cc1NC(=O)CN1CCN(C(=O)CC3CCOCC3)CC1)OCO2 [compound 87] | 1.04 |  | 
15 | CC(=O)c1cc2c(cc1NC(=O)CN1CCCC(C(=O)Nc3ccccc3)C1)OCO2 (stereo not shown) [compound 157] |  |  | IC50 (hT2R54; Table 5, cells stably expressing hT2R54 and a promiscuous G protein): 0.565 µM
16 | CC(=O)c1cc2c(cc1NC(=O)Cc1ccsc1)OCO2 [compound 275] |  |  | IC50 (hT2R54; Table 9): 0.704 µM
17 | CCOC(=O)N1CCC(CC(=O)Nc2cc3c(cc2C(C)=O)OCO3)C1 (stereo not shown) [compound 268] |  | 0.117 | 
18 | COCCCN(C)CC(=O)Nc1cc2c(cc1C(C)=O)OCO2 [compound 425] |  |  | IC50 (hT2R54; [3]): 0.643 µM

Continued, in another order:

Row | IC50 (hT2R54; [2]) [µM] | IC50 (hT2R54; Table 8) [µM] | Compound | further results
19 | 0.3 |  | COCc1cc(C(=O)N2CCN(CC(=O)Nc3cc4c(cc3OC)OCO4)CC2)no1 [compound 400] | 
20 |  | > 50 | CC(=O)c1cc2c(cc1NC(=O)CC1CCN(C(=O)C3CCN(C)C3)CC1)OCO2 (stereo not shown) [compound 473] | 
21 | 2.5 |  | COc1cc2c(cc1NC(=O)CN1CCN(C(C)=O)CC1)CCC2 [compound 355] | 
22 | 0.6 |  | COc1cc2c(cc1NC(=O)CN1CCN(C(=O)c3cccc(F)c3)CC1)OCO2 [compound 367] | 
23 |  | 0.099 | COCc1ccc(C(=O)N2CCCC(CC(=O)Nc3cc4c(cc3C(C)=O)OCO4)C2)cc1 (stereo not shown) [compound 503] | 
24 | 0.2 |  | CC(=O)c1cc2c(cc1NC(=O)CN1CCN(C(=O)CC3CCOC3)CC1)OCO2 (stereo not shown) [compound 323] | 
25 |  | 2.7 | COc1cc2c(cc1NC(=O)CC1CCCN(C(=O)c3ccccc3)C1)OCO2 (stereo not shown) [compound 513] | 
26 | 0.008 |  | CC(=O)c1cc2c(cc1NC(=O)CN1CCN(C(=O)c3cc(C)no3)CC1)OCO2 [compound 293] | 
